Test [1] has as its system CD-1 male mice. Set-up: method as in Bilel et al. ([2020]). To be noted: i.p., value ± SEM, elaborated from earlier data, ref Bilel et al. ([2020]); cited from earlier work.
Test [2] has as its system CD-1 male mice. Briefly: Visual placing response test. The format is in vivo, mouse. The protocol:
For the overall study 234 mice were used. In sensorimotor (visual object, visual placing, acoustic, and overall tactile responses) tests for MAM-2201, experiments for each treatment dose (vehicle or 5 different MAM-2201 doses, 0.01, 0.1, 1, 3, and 6 mg/kg) used 8 mice (total mice used: 48) and for MAM-2201 with AM-251 pretreatment, experiments for each dose regimen (vehicle + AM-251 or MAM-2201 + AM-251, 6 mg/kg) used 16 mice. In the analysis of spontaneous locomotion (open field test) for MAM-2201, experiments for each treatment regimen (vehicle or 4 different MAM-2201 doses, 0.01, 0.1, 1, and 6 mg/kg) used 10 mice (total mice used: 50). In the PPI test for MAM-2201, experiments for each treatment (vehicle or 3 different MAM-2201 doses, 0.01, 0.1, and 1 mg/kg) used 10 mice (total mice used: 40), while for MAM-2201 experiments in the Novel Object Recognition (NOR) test for each treatment regimen (vehicle or 3 different MAM-2201 and vehicle or 3 different AM-2201 doses, 0.01, 0.1, and 1 mg/kg) used 10 mice (total mice used: 80). […] The voluntary and involuntary motor responses of the animal to different visual, acoustic, and tactile stimuli were evaluated according to the procedure described in our previous studies (Ossato et al. [2015]; Bilel et al. [2020]). To reduce the number of animals used, mice were evaluated in functional observational tests carried out in a consecutive manner according to the following time scheme: observation of visual object responses (frontal and lateral view), acoustic response, tactile response (vibrissae, corneal and pinnae reflexes), and visual placing response. Sensorimotor tests were measured at 10, 30, 60, 120, 180, 240, and 300 min after injections for the evaluation of the visual object, acoustic and the tactile response, and at 15, 45, 75, 135, 195, 255, and 315 min after injections for the evaluation of visual placing response. […] Sensory gating was evaluated by analysis of the pre-pulse inhibition (PPI) of the acoustic startle reflex as previously described (Bilel et al. [2020]). […]

SMILES strings stand for the structures.

Consider `O=C(c1cccc2ccccc12)c1cn(CCCCCF)c2ccccc12` [AM-2201, 1-[(5-Fluoropentyl)-1H-indol-3-yl](1-naphthylenyl) methanone], for which the “ED50 (mg/kg), Overall tactile” value in test [1] is reported as 2.120 ± 0.013 mg/kg.
What is called ED50 is the dose that gives a 50% effect, or the effect in half of the subjects. With `Cc1ccc(C(=O)c2cn(CCCCCF)c3ccccc23)c2ccccc12` [MAM-2201, 1-[(5-fluoropentyl)-1H-indol-3-yl](4-methyl-1-naphthalenyl) methanone], the “effect on visual placing response” value in test [2] (0.01-6 mg/kg i.p., persisted up to 5 h at all doses) is “drastic impairment”. In test [2] (Mus musculus, ip, mice, value ± SEM), this compound had an ED50 of 0.291 ± 0.025 mg/kg.

The values are drawn from publication PMC10272271, “MAM-2201 acute administration impairs motor, sensorimotor, prepulse inhibition, and memory functions in mice: a comparison with its analogue AM-2201” (Psychopharmacology, 2023).
